The values below come from patent publication US20230219965A1 (KSQ Therapeutics, Inc., priority 2020, published 2023).

The target of one data set is USP1/UAF1 enzyme (Homo sapiens, UniProt O94782). The data set can be described thus: USP1/UAF1 deubiquitination assay (ubiquitin-rhodamine 110 substrate). In kind it is biochemical. The settings on record: read-out: USP1 IC50 (Ub-Rho). The gist of the method: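 0.05 nM USP1/UAF1 was preincubated 10 min with compounds (dose response from 10 μM) in 50 mM Tris-HCl pH 7.8, 0.5 mM EDTA, 0.01% BSA, 1 mM DTT, 0.01% Tween-20. 150 nM ubiquitin-rhodamine 110 started the reaction, read kinetically 30 min at Ex480/Em540; IC50 by four-parameter fit versus no-enzyme and DMSO controls.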
Chain of USP1/UAF1 enzyme (O94782 whole entry): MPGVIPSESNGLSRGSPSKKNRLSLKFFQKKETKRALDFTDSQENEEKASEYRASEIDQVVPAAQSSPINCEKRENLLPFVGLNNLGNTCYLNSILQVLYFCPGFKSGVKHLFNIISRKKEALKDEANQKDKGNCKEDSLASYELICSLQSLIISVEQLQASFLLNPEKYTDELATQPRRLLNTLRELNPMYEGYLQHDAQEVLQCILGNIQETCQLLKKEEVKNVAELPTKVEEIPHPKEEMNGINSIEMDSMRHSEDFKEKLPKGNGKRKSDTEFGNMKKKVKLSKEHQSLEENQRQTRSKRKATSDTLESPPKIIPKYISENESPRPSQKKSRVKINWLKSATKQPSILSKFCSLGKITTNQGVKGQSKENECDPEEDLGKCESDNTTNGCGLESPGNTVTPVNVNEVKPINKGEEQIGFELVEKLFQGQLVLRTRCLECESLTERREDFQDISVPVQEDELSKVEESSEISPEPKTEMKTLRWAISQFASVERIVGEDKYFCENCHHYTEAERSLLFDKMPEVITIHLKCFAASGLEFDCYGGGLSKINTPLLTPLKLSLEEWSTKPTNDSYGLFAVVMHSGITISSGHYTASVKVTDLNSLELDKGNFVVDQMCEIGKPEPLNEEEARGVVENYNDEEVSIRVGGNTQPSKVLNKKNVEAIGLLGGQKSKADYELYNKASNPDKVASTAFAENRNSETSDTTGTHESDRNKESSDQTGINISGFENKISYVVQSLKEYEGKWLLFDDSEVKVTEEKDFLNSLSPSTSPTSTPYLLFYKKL
Chain of USP1/UAF1 enzyme (Q8TAF3 whole entry partner): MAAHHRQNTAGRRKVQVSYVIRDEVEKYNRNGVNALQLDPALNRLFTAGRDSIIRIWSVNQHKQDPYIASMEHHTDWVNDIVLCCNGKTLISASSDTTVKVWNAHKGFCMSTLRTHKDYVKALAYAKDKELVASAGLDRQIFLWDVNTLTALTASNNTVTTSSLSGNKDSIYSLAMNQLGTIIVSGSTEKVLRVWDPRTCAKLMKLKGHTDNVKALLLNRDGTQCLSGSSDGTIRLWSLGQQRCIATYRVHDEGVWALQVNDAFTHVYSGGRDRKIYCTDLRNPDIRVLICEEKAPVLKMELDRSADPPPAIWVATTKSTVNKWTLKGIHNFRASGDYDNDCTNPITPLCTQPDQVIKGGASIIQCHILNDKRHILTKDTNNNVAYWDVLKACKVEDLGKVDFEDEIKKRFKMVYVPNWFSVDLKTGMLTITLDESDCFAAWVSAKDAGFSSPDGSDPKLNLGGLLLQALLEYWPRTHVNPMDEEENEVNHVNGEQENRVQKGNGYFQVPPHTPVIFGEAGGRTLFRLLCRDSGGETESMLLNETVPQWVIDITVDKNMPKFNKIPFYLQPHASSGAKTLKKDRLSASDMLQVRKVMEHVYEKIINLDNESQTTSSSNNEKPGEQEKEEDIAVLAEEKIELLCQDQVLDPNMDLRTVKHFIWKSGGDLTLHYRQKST

The nature of data set [1]: Liver microsomal metabolic stability, rat liver microsomes (RLM). The settings on record: rat, liver microsomes, t1/2 (min) in RLM, 1 μM compound, 1 mg/mL microsomes, NADPH. (In general: Microsomes from liver hold many membrane-bound enzymes, among them those of drug oxidation.)
Data set [2] is described as follows: ADME solubility determination in PBS at pH 2.0 and pH 7.4. Particulars: phosphate buffered saline, 25 °C, thermodynamic from solid. In kind it is physicochemical. How it is done: Certain Compounds of the Disclosure were assessed for ADME solubility at pH 2.0 and pH 7.4.
Stock solutions were prepared by adding each compound to DMSO at a concentration of 10 mM. Samples were prepared by adding 50 μL of each stock solution to separate vials. The vials were loaded onto a 96-well rack and dried. 500 μL of Phosphate Buffered Saline (PBS) pH 7.4 or PBS pH 2.0 were added into each vial. The vials were then shaken at 25° C. and 1,100 rpm for 24 hours.
After 24 hours, the vials were centrifuged at 3220 G and 25° C. for 30 minutes. The supernatant fluid was analyzed by LC-MS/MS against a standard of known concentration. The solubility of each sample was then calculated using the equation below: […]
where DF is the dilution factor.

The nature of data set [3]: Liver microsomal metabolic stability, human liver microsomes (HLM). Particulars: human, liver microsomes.
The mark [4] stands for this setting: pH 2, aqueous buffer, PBS pH 2.0, 25° C., read-out: Solubility at pH 2.0.
Where [5] appears, read: pH 7.4, aqueous buffer, PBS pH 7.4, 25° C., read-out: Solubility at pH 7.4.

Structures are written as SMILES. Read-outs that look alike come from different tables or passages of the source.

One may read the IC50 as the point on the concentration scale where inhibition reaches its midpoint. A word on the half-life: it is the time needed for the level to fall by half in the phase considered. The solubility is the dissolved amount per volume that the medium holds. As for `CCn1cc(C(F)(F)F)nc1-c1ccc(N[C@@H]2CCCn3nc(-c4c(Cl)cnn4[C@H](C)CF)cc32)cc1` (single isomer, unassigned) [Example 323], the IC50 at USP1/UAF1 enzyme is below 100 nM. Besides, the half-life at 1 μM in data set [1] and in data set [3] was above 25 min throughout. Moreover, the solubility at 24 h in data set [2] (setting [4]) and in data set [2] (setting [5]) was below 10 µM throughout.
In the case of `CCn1cc(C(F)(F)F)nc1-c1ccc(NC2CCCn3nc(-c4c(Cl)cnn4C(C)C)nc32)cc1F` (centres unmarked) [Example 257, 2-(4-chloro-1-isopropyl-1H-pyrazol-5-yl)-N-(4-(1-ethyl-4-(trifluoromethyl)-1H-imidazol-2-yl)-3-fluorophenyl)-5,6,7,8-tetrahydro-[1,2,4]triazolo[1,5-a]pyridin-8-amine], the IC50 at USP1/UAF1 enzyme fell in the range of 100 to 500 nM. Besides, the half-life at 1 μM in data set [1] and in data set [3] was above 25 min throughout. Besides, the solubility at 24 h in data set [2] (setting [4]) and in data set [2] (setting [5]) was below 10 µM throughout.
Take `CCn1cc(C(F)(F)F)nc1-c1ccc(CN2C(=O)CCn3nc(-c4c(C(F)F)cnn4C(C)C)cc32)cc1F` [Example 328, 2-(4-(difluoromethyl)-1-isopropyl-1H-pyrazol-5-yl)-4-(4-(1-ethyl-4-(trifluoromethyl)-1H-imidazol-2-yl)-3-fluorobenzyl)-6,7-dihydropyrazolo[1,5-α]pyrimidin-5(4H)-one]: on USP1/UAF1 enzyme, the IC50 is 100 to 500 nM. Also, the half-life at 1 μM in data set [1] and in data set [3] was above 25 min throughout. The solubility at 24 h in data set [2] (setting [4]) is at least 10 µM; in data set [2] (setting [5]), below 10 µM.
Regarding `CCn1cc(C(F)(F)F)nc1-c1ccc([C@@H](C)N2C(=O)CCn3nc(-c4c(OC(F)F)ncnc4C4CC4)nc32)cc1` [Example 208], the IC50 on USP1/UAF1 enzyme is below 100 nM. Besides, the half-life at 1 μM in data set [1] was below 25 min; in data set [3], above 25 min. The solubility at 24 h in data set [2] (setting [4]) and in data set [2] (setting [5]) was at least 10 µM in each case.
Turning to `Cc1cn(C)nc1-c1ccc(CN2C(=O)CCn3nc(-c4c(Cl)cnn4C(C)C)cc32)cc1` [Example 93], the IC50 on USP1/UAF1 enzyme was below 100 nM. For the same molecule, the half-life at 1 μM in data set [1] and in data set [3] was below 25 min in each case. For the same molecule, the solubility at 24 h in data set [2] (setting [4]) and in data set [2] (setting [5]) was below 10 µM throughout.
`CCn1cc(C(F)(F)F)nc1-c1ccc(CN2C(=O)CCn3nc(-c4c(Cl)cnn4C(C)C)c(C#N)c32)cc1` [Example 223, 2-(4-chloro-1-isopropyl-1H-pyrazol-5-yl)-4-(4-(1-ethyl-4-(trifluoromethyl)-1H-imidazol-2-yl)benzyl)-5-oxo-4,5,6,7-tetrahydropyrazolo[1,5-α]pyrimidine-3-carbonitrile]: the IC50 on USP1/UAF1 enzyme is below 100 nM. Besides, the half-life at 1 μM in data set [1] was above 25 min; in data set [3], below 25 min. The solubility at 24 h in data set [2] (setting [4]) and in data set [2] (setting [5]) was below 10 µM in each case.
With `CC(C)n1ncc(Cl)c1-c1cc2n(n1)CCC(=O)N2Cc1ccc(-c2cn(C)c(C(F)(F)F)n2)c(F)c1` [Example 130], the IC50 at USP1/UAF1 enzyme is 100 to 500 nM. Besides, the half-life at 1 μM in data set [1] and in data set [3] was above 25 min throughout. Also, the solubility at 24 h in data set [2] (setting [4]) and in data set [2] (setting [5]) was below 10 µM in each case.
As to `Cc1cnn(C(C)C)c1-c1cc2n(n1)CCCN2Cc1ccc(-n2nc(C(F)(F)F)cc2C)c(F)c1` [Example 56], at USP1/UAF1 enzyme, the IC50 is below 100 nM. For the same molecule, the half-life at 1 μM in data set [1] and in data set [3] was below 25 min in each case. For the same molecule, the solubility at 24 h in data set [2] (setting [4]) and in data set [2] (setting [5]) was below 10 µM throughout.
For `Cc1cnn(C(C)C)c1-c1nn2c(c1Cl)N(Cc1ccc(-c3nc(C(F)(F)F)cn3C)cc1)C(=O)CC2` [Example 34], the concentration for half-maximal inhibition (IC50) at USP1/UAF1 enzyme was in the range of 100 to 500 nM. Further, the half-life at 1 μM in data set [1] and in data set [3] was below 25 min each time. The solubility at 24 h in data set [2] (setting [4]) and in data set [2] (setting [5]) was below 10 µM in each case.
In the case of `CCn1cc(C(F)(F)F)nc1-c1ccc([C@H](C)n2c(=O)ccn3nc(-c4c(OC)ncnc4C4CC4)nc23)cc1F` [Example 342, (S)-2-(4-cyclopropyl-6-methoxypyrimidin-5-yl)-4-(1-(4-(1-ethyl-4-(trifluoromethyl)-1H-imidazol-2-yl)-3-fluorophenyl)ethyl)-[1,2,4]triazolo[1,5-a]pyrimidin-5(4H)-one], the IC50 on USP1/UAF1 enzyme was below 100 nM. Also, the half-life at 1 μM in data set [1] and in data set [3] was above 25 min each time. Besides, the solubility at 24 h in data set [2] (setting [4]) and in data set [2] (setting [5]) was at least 10 µM in each case.
In the case of `COc1ccnc(C(C)C)c1-c1cc2n(n1)CCC(=O)N2Cc1ccc(-c2nc(C(F)(F)F)cn2C)cc1` [Example 13, 2-(2-isopropyl-4-methoxypyridin-3-yl)-4-(4-(1-methyl-4-(trifluoromethyl)-1H-imidazol-2-yl)benzyl)-6,7-dihydropyrazolo[1,5-a]pyrimidin-5(4H)-one], the IC50 on USP1/UAF1 enzyme fell in the range of 100 to 500 nM. For the same molecule, the half-life at 1 μM in data set [1] and in data set [3] was below 25 min throughout. Also, the solubility at 24 h in data set [2] (setting [4]) and in data set [2] (setting [5]) was at least 10 µM throughout.
Consider `COc1cc([C@H](C)N2C(=O)CCn3nc(-c4c(OC)ncnc4C4CC4)cc32)ccc1-c1nc(C(F)(F)F)cn1C(C)C` [Example 128], for which, at USP1/UAF1 enzyme, the IC50 fell in the range of 100 to 500 nM. For the same molecule, the half-life at 1 μM in data set [1] and in data set [3] was below 25 min in each case. The solubility at 24 h was at least 10 µM in data set [2] (setting [4]) and below 10 µM in data set [2] (setting [5]).
In the case of `Cc1cnn(C(C)C)c1-c1cc2n(n1)CCCN2Cc1ccc(-n2nc(C(F)(F)F)cc2C)cc1` [Example 52, 2-(1-isopropyl-4-methyl-1H-pyrazol-5-yl)-4-(4-(5-methyl-3-(trifluoromethyl)-1H-pyrazol-1-yl)benzyl)-4,5,6,7-tetrahydropyrazolo[1,5-α]pyrimidine], at USP1/UAF1 enzyme, the IC50 was below 100 nM. Further, the half-life at 1 μM in data set [1] and in data set [3] was below 25 min throughout. The solubility at 24 h in data set [2] (setting [4]) and in data set [2] (setting [5]) was below 10 µM each time.
Consider `COc1ccnc(C2CC2)c1-c1nc2n(n1)CCC(=O)N2Cc1ccc(-c2nc(C(F)(F)F)cn2C(C)C)c(F)c1` [Example 207], for which the half-inhibitory concentration (IC50) on USP1/UAF1 enzyme is 100 to 500 nM. Besides, the half-life at 1 μM is above 25 min in data set [1] and below 25 min in data set [3]. Besides, the solubility at 24 h in data set [2] (setting [4]) was at least 10 µM; in data set [2] (setting [5]), below 10 µM.
In the same order, the values of `COc1ncnc(C2CC2)c1-c1nc2n(n1)CCC(=O)N2[C@@H](C)c1ccc(-c2nc(C(F)(F)F)c(Br)n2C)cc1` [Example 205] are below 100 nM, above 25 min, below 25 min, below 10 µM and at least 10 µM.
As for `CCn1cc(C(F)(F)F)nc1-c1ccc([C@H](C)N2C(=O)CCn3nc(-c4c(Cl)cnn4C(C)C)nc32)cc1OC` [Example 179], at USP1/UAF1 enzyme, the IC50 fell in the range of 100 to 500 nM. In addition, the half-life at 1 μM in data set [1] and in data set [3] was below 25 min each time. Also, the values for the solubility at 24 h in data set [2] (setting [4]) and in data set [2] (setting [5]) were at least 10 µM and below 10 µM, respectively.
